Assay results: article PMC9501280, “Anti-Inflammatory Activity of Soluble Epoxide Hydrolase Inhibitors Based on Selenoureas Bearing an Adamantane Moiety” (International Journal of Molecular Sciences, 2022)
In brackets after ≈: the same amount, converted by molar mass. Entries after “also recorded” stand apart in the source; their conditions may differ. Like-named read-outs stand apart in the source and are kept apart here.

Assays:
[1] = biological target: T1, human recombinant sEH (Homo sapiens, UniProt P34913); assay: Human sEH inhibition, kinetic fluorescent assay; type: biochemical
T1 sequence (P34913 1-555): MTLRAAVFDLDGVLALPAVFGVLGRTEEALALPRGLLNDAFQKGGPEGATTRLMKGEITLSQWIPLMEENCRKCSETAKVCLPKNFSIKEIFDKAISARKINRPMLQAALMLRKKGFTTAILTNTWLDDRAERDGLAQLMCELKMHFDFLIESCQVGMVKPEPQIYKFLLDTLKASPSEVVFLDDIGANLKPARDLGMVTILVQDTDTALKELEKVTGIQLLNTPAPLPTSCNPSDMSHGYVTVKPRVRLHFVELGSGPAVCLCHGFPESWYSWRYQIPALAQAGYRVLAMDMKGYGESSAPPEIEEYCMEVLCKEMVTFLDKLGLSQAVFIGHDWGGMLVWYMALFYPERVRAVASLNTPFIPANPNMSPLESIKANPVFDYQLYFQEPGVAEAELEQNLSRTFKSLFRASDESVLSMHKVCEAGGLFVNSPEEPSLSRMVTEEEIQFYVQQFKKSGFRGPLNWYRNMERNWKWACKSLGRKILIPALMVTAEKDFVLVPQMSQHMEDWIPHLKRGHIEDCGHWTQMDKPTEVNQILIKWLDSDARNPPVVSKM

[2] = Solubility in sodium phosphate buffer; type: physicochemical; conditions: aqueous buffer, kinetic from dmso stock; sodium phosphate buffer (pH 7.4, 0.1 M) containing 1% DMSO
Protocol: To our knowledge, no systematic studies of selenoureas as sEH inhibitors have been performed previously. The potency of the compounds was determined against the human recombinant sEH and their solubility assessed in phosphate-buffered saline (Table 1).

[3] = ABTS radical cation scavenging
Protocol: Thus, at the further steps, the complex investigation of the target compounds’ ability to interact with protons, electrons, and radicals was conducted.

[4] = Ferric-reducing antioxidant power (FRAP); conditions: Trolox equivalents (Trolox = 1)
Source text: To confirm the SET mechanism, the reducing activity of the compounds was studied using tests CUPRAC (Cupric-Reducing Antioxidant Capacity) and FRAP (Ferric ion-Reducing Antioxidant Power). Unlike the DPPH and ABTS tests, these methods are based only on the ability of substances to act as electron donors. It should be noted that the CUPRAC test has several advantages: the manifestation of activity at a pH close to the physiological value and a favorable redox potential; the method is applicable to both lipophilic and hydrophilic antioxidants. The antioxidant potential of the studied derivatives 4a–g and 5a is estimated in equivalents of the water-soluble analog of vitamin E—Trolox (TEAC—Trolox Equivalent Antioxidant Capacity), the activity of which is taken as the unit ([…] = 1, […] = 1).
The sample solution (0.1 mL) was mixed with 0.1 mL phosphate buffer (0.2 M, pH 6.6) and 0.1 mL potassium ferricyanide (1%). For each test compound, different concentrations of EtOH were used (5, 10, 25, 50, 100, 200 and 250 μM). The resulting mixture was incubated at 50 °C for 20 min. After the incubation period, 0.1 mL trichloroacetic acid (10%), 0.5 mL deionized water and 0.1 mL ferric chloride (0.1%) were added to the mixture. The sample absorbance was read at 700 nm with a 96-cell microplate spectrophotometer. The reduction of Fe (III) to Fe (II) could be expressed as % inhibition or the equivalent of a standard compound (e.g., Trolox).

[5] = Superoxide radical anion formation by xanthine oxidase (NBT assay); type: biochemical; conditions: sample solution 5 mM in DMSO
Protocol: The superoxide anion radical scavenging activity of derivatives 4a–g and 5a was evaluated by the ability to inhibit the reduction of nitro blue tetrazolium (NBT) to blue formazan by trapping O2^•− generated by xanthine oxidase in the oxidation of hypoxanthine to uric acid.
EDTA, xanthine, bovine serum albumin, nitro blue tetrazolium and xanthine oxidase (25 MU) were purchased from Sigma Aldrich (Burlington, MA, USA). The superoxide anions were generated enzymatically by the xanthine oxidase system. The reaction mixture consisted of 2.70 mL of 40 mM sodium carbonate buffer containing 0.1 mM EDTA (pH 10.0), 0.06 mL of 10 mM xanthine, 0.03 mL of 0.5% bovine serum albumin, 0.03 mL of 2.5 mM nitro blue tetrazolium and 0.06 mL of the sample solution in DMSO at the concentration of 5 mM. An amount of 0.12 mL of xanthine oxidase (0.04 units) was added to the mixture at 25 °C, and the absorbance at 560 nm (by formation of blue formazan) was measured by a microplate spectrophotometer for 60 s. A control experiment was carried out by replacing the sample solution with the same amount of DMSO.
Inhibition I (%) = [(1 − Ai/A0) × 100%], where Ai is the absorbance in the presence of the testing compound, and A0 is the absorbance of the blank solution. All experiments were performed three times.

[6] = Nitric oxide radical scavenging assay (sodium nitroprusside, Griess); conditions: sample solution 0.5 mM, sodium nitroprusside 5 mM, 150 min
Protocol: The activity of compounds 4a–g and 5a with respect to NO^• generated from sodium nitroprusside, which further interacts with dissolved oxygen to form nitrite ions measured using the Griss reagent, was investigated.
Sodium nitroprusside (SNP) dissolved in aqueous solution at physiological pH 7.2 can generate nitric oxide whose level can be measured by the Griess reaction. Sample solution (50 µL, 0.5 mM) was mixed with SNP (50 µL, 5 mM) in phosphate buffer at pH 7.4 (0.2 M), followed by an incubation at room temperature for 150 min. Similarly, a blank was prepared by adding the sample solution in phosphate buffer without SNP. Griess reagent (solutions of 0.33% sulfanilic acid and 0.1% N-(1-naphthyl) ethylenediamine (NED) (C12H14N2) in 20% glacial acetic acid; 1:1) (100 µL) was added to the incubated sample and allowed to stand for 30 min. Absorbance values of the blank and samples were measured at 548 nm. The absorbance of the blank was then subtracted from that of the sample. Results were expressed as %inhibition. Inhibition I (%) = [(A0 − A1)/A0] × 100, where A1 is the absorbance in the presence of the testing compound, and A0 is the absorbance of the blank solution. All experiments were performed three times.

[7] = kinetic fluorescent assay, means of three separate experiments, read-out: Human sEH IC50

Row | SMILES | IC50 [1, 7] | solubility [2] | % Inhibition ABTS+• [3] | TEACFRAP [4] | % Inhibition NBT [5] | % Inhibition NO• [6] | melting point | increase in the inhibitory activity ([1]; 4b versus 4a, one methylene group between adamantyl and selenourea) | IC50 ([1]; human sEH, read-out: IC50 (sEH))
1 | [Se]=C(Nc1ccccc1)NC1C2CC3CC(C2)CC1C3 (stereo not drawn) [4g, 1-(Adamantan-2-yl)-3-phenylselenourea] | 104 nM | 80 ± 20 µM (≈ 26.7 µg/mL) | 47.21 ± 1.20% | 1.39 ± 0.03 | 14.26 ± 1.48% | 27.91 ± 1.50% | 187 to 188 °C | – | –
2 | [Se]=C(NCc1ccccc1)NC12CC3CC(CC(C3)C1)C2 [5a, 1-(Adamantan-1-yl)-3-benzylselenourea] | 211 nM | 125 ± 20 µM (≈ 43.4 µg/mL) | – | 1.19 ± 0.04 | 56.52 ± 0.05% | non active | 157 to 158 °C | – | –
3 | [Se]=C(NCC12CC3CC(CC(C3)C1)C2)Nc1ccccc1 [4b, 1-[(Adamantan-1-yl)methyl]-3-phenylselenourea] | 131 nM | 110 ± 20 µM (≈ 38.2 µg/mL) | 53.01 ± 1.62% | 1.14 ± 0.03 | 35.20 ± 1.46% | 20.57 ± 1.42% | 197 to 198 °C | 3.3 fold | –
4 | CC(NC(=[Se])Nc1ccccc1)C12CC3CC(CC(C3)C1)C2 (stereo not drawn) [4c, 1-[1-(Adamantan-1-yl)ethyl]-3-phenylselenourea] | 1210 nM | 50 ± 5 µM (≈ 18.1 µg/mL) | 77.44 ± 1.78% | 1.81 ± 0.08 | 6.52 ± 0.50% | 54.35 ± 2.38% | – | – | 1200 nM
5 | CC12CC3CC(C)(C1)CC(NC(=[Se])Nc1ccccc1)(C3)C2 [4f, 1-(3,5-Dimethyladamantan-1-yl)-3-phenylselenourea] | 256 nM | 100 ± 10 µM (≈ 36.1 µg/mL) | do not exhibit antiradical properties; also recorded: nonactive | 0.57 ± 0.04 | 10.93 ± 1.05% | 7.27 ± 0.72% | 142 to 143 °C | – | –
6 | [Se]=C(Nc1ccccc1)Nc1ccc(C23CC4CC(CC(C4)C2)C3)cc1 [4e, 1-[4-(Adamantan-1-yl)phenyl]-3-phenylselenourea] | 55.4 nM | 30 ± 10 µM (≈ 12.3 µg/mL) | – | 1.13 ± 0.14 | 4.75 ± 0.50% | 2.63 ± 0.99% | 163 to 164 °C | – | –
7 | [Se]=C(NCCC12CC3CC(CC(C3)C1)C2)Nc1ccccc1 [4d, 1-[2-(Adamantan-1-yl)ethyl]-3-phenylselenourea] | 49.1 nM | 70 ± 10 µM (≈ 25.3 µg/mL) | 64.55 ± 2.30% | 1.32 ± 0.01 | 6.85 ± 1.18% | 31.36 ± 2.48% | 141 to 142 °C | – | –
8 | [Se]=C(Nc1ccccc1)NC12CC3CC(CC(C3)C1)C2 [4a, 1-(Adamantan-1-yl)-3-phenylselenourea] | 436 nM | 55 ± 10 µM (≈ 18.3 µg/mL) | – | 0.93 ± 0.06 | 29.17 ± 0.01% | non active | 202 to 203 °C | – | –
